Here are results for twelve compounds from patent US20250051276A1 (priority 2021, published 2025).

The term EC50 denotes the concentration needed to bring the measured effect to its halfway point. As a reminder, the IC50 is the concentration that inhibits the measured activity by half. Read a high IC50 as weaker potency.

The target in assay [1] is human recombinant 5-HT2Cedited receptor (Homo sapiens, UniProt P28335, I156V/I160V/N158S). The assay is described as follows: cell-based.
Assay [2] has as its target 5-HT2Cedited (accession number AAF35842.1) (Homo sapiens, UniProt P28335, I156V/I160V/N158S). Description: biochemical. The class given is binding.

human recombinant 5-HT2Cedited receptor, sequence (P28335 33-458 I156V/N158S/I160V limits assumed): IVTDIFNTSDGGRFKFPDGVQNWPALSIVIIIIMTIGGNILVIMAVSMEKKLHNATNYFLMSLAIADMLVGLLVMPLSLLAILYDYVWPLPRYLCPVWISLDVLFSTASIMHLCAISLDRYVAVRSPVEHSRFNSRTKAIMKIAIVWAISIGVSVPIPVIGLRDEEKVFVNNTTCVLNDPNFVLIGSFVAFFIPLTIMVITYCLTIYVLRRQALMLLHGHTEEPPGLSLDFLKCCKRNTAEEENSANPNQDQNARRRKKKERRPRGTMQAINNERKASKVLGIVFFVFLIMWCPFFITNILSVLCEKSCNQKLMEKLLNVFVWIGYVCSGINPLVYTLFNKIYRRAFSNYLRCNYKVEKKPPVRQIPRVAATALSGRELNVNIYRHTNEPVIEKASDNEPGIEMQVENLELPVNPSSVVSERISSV
5-HT2Cedited (accession number AAF35842.1), sequence (P28335 whole entry I156V/N158S/I160V, looked up): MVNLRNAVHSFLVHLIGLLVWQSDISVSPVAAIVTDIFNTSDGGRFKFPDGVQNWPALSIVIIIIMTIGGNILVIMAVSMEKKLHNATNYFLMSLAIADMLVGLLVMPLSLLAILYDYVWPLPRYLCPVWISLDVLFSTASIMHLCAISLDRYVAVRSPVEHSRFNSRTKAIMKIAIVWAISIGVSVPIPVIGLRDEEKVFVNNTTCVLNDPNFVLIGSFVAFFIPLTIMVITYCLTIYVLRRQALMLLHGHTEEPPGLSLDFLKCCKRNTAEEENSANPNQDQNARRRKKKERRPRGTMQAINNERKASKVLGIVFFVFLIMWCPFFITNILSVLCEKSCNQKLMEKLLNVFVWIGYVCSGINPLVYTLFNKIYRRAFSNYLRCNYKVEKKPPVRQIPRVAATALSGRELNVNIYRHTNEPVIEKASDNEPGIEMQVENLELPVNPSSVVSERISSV

Turning to `C[C@@H](N)Cn1ccc2nc(OCc3ccccc3)ccc21` [Compound 2, (R)-1-(5-(benzyloxy)-1H-pyrrolo[3,2-b]pyridin-1-yl)propan-2-amine], in assay [1], the half-maximal effective concentration (EC50) is more than 10 µM. The compound also had an IC50 in assay [2] of more than 10 µM.

Consider `C[C@H](Cn1ccc2cc(OCc3ccc(F)cc3)ccc21)N(C)C` [Compound 8, (R)-1-(5-((4-fluorobenzyl)oxy)-1H-indol-1-yl)-N,N-dimethylpropan-2-amine], for which the EC50 in assay [1] was more than 10 µM. This compound yielded an IC50 in assay [2] of 0.101 to 1 µM.

In the case of `C[C@H](Cn1ccc2cc(OCc3ccccc3)ccc21)N1CCCC1` [Compound 12, (R)-5-(benzyloxy)-1-(2-(pyrrolidin-1-yl)propyl)-1H-indole], in assay [1], the EC50 was more than 10 µM. In assay [2], this compound had an IC50 of 1 to 10 µM.

As to `CN[C@H](C)Cn1ccc2cc(OCc3ccccc3)ccc21` [Compound 4, (R)-1-(5-(benzyloxy)-1H-indol-1-yl)-N-methylpropan-2-amine], the EC50 in assay [1] lay in the range of 1 to 10 µM. The same compound came in with an IC50 in assay [2] of 1 to 10 µM.

As for `CCN(CC)[C@H](C)Cn1ccc2cc(OCc3ccccc3)ccc21` [Compound 11, (R)-1-(5-(benzyloxy)-1H-indol-1-yl)-N,N-diethylpropan-2-amine], the EC50 in assay [1] is more than 10 µM. The compound also gave an IC50 in assay [2] of 1 to 10 µM.

In the case of `C[C@@H](N)Cn1ccc2cc(OCc3cccc(F)c3)ccc21` [Compound 6, (R)-1-(5-((3-fluorobenzyl)oxy)-1H-indol-1-yl)propan-2-amine], the EC50 in assay [1] was in the range of 1 to 10 µM. The compound also returned an IC50 in assay [2] of 0.101 to 1 µM.

`C[C@H](Cn1ccc2cc(OCc3ccccc3F)ccc21)N(C)C` [Compound 10, (R)-1-(5-((2-fluorobenzyl)oxy)-1H-indol-1-yl)-N,N-dimethylpropan-2-amine]: the EC50 in assay [1] was more than 10 µM. The compound also came in with an IC50 in assay [2] of 0.101 to 1 µM.

As for `C[C@H](Cn1ccc2nc(OCc3ccccc3)ccc21)N(C)C` [Compound 1, (R)-1-(5-(benzyloxy)-1H-pyrrolo[3,2-b]pyridin-1-yl)-N,N-dimethylpropan-2-amine], the EC50 in assay [1] is more than 10 µM. In assay [2], this compound came in with an IC50 of 1 to 10 µM.

Regarding `C[C@H](Cn1ccc2cc(OCc3ccccc3)ccc21)N(C)C` [Compound 3, (R)-1-(5-(benzyloxy)-1H-indol-1-yl)-N,N-dimethylpropan-2-amine], the EC50 in assay [1] is 1 to 10 µM. Further, the IC50 in assay [2] is 0.101 to 1 µM.

Consider `C[C@H](Cn1ccc2cc(OCc3cccc(F)c3)ccc21)N(C)C` [Compound 9, (R)-1-(5-((3-fluorobenzyl)oxy)-1H-indol-1-yl)-N,N-dimethylpropan-2-amine], for which, in assay [1], the EC50 is more than 10 µM. In assay [2], this compound had an IC50 of 0.101 to 1 µM.

With `C[C@@H](N)Cn1ccc2cc(OCc3ccc(F)cc3)ccc21` [Compound 5, (R)-1-(5-((4-fluorobenzyl)oxy)-1H-indol-1-yl)propan-2-amine], in assay [1], the EC50 lay within 1 to 10 µM. The compound further yielded an IC50 in assay [2] of 0.101 to 1 µM.

Regarding `C[C@@H](N)Cn1ccc2cc(OCc3ccccc3F)ccc21` [Compound 7, (R)-1-(5-((2-fluorobenzyl)oxy)-1H-indol-1-yl)propan-2-amine], the EC50 in assay [1] fell in the range of 1 to 10 µM. In assay [2], this compound registered a half-maximal inhibitory concentration (IC50) of 1 to 10 µM.
